From PubChem BioAssay AID504861 (Broad Institute, 2011) come the findings set out here.

Activity calls are given as the source filed them.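 How the source made its calls: active means compounds lowering cell viability signal with fitted half-maximal concentration at most ten times their highest tested concentration; inconclusive means flat fit with 30 to 70% signal loss, or poor fit; inactive means the rest.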

The test system of this assay is HEK293T viability, CellTiter-Glo ATP luminescence, 48 h. Put plainly: cytotoxicity in HEK293T cells – cell-based, CellTiter-Glo luminescence, cherry-picks, cytotoxicity control for LMP1 NF-kB inhibitor project, dose response (AID 504861). Background: Cellular ATP, detected with luciferase, serves as a proxy for viable cell number.
Turning to `C=CCn1c(O)c(N=NC(=S)Nc2ccccc2F)c2cc(S(=O)(=O)N3CCOCC3)ccc21`, the AC50 (in general, the concentration at which the activity in the assay is half-maximal) was > 26 µM (inactive). In the case of `O=C(N/N=C/c1ccc(O)cc1O)c1ccc(CN2C(=O)c3cccc4cccc2c34)cc1`, the AC50 was 9.41 µM. In the case of `CS(=O)(=O)c1ncc(Cl)c(C(=O)Nc2ccc(OC(F)F)cc2)n1` it was 3.2 µM; in that of `Cn1nnnc1N=N/C(=N/Nc1ccccc1)c1ccccc1`, 1.23 µM; in that of `NC(=S)NN=Cc1nccc2c(C(F)(F)F)cccc12`, 5.67 µM. As to `O=C(N/N=C/c1ccc[nH]1)c1ccc(COc2cccc3cccnc23)cc1`, the AC50 was 3.99 µM. The result for `CCN(CC)c1ccc(/C=N/Nc2nc3ccccc3[nH]2)c(O)c1` reads 4.51 µM; that for `COc1ccccc1NC(=S)NN=C(C)c1ccccn1`, 0.403 µM. The result for `Oc1ccc(C=NNC(=S)Nc2ccccc2)nc1` reads 4.96 µM; that for `c1ccn2cc(-c3ccc4c(c3)OCCO4)nc2c1`, 16.1 µM; that for `CCOc1ccc(OCc2cccc(C(=O)N/N=C/c3cccnc3)c2)cc1`, > 26 µM (inactive).

On to `CCN(CC)S(=O)(=O)c1cccc(NC(=O)Nc2cccc(C(F)(F)F)c2)c1`, for which the AC50 is 19.1 µM. In the case of `c1ccc(-c2nc(-c3ccccn3)no2)cc1` it was 7.87 µM. The result for `CCC(=O)NC(c1ccc(C)cc1)c1ccc2cccnc2c1O` (stereo not given) reads 4.33 µM.

For `CC(=O)NC(c1ccc(C(C)C)cc1)c1ccc2cccnc2c1O` (stereo not given), the AC50 was 1.2 µM.

On to `Cn1c(/C=C/c2ccccc2)nc2ccccc21`, for which the AC50 is 9.76 µM. In the case of `Oc1ccc2ccccc2c1N=Nc1ccccn1` it was 3.42 µM; in that of `CC(=NNC(=S)N1CCCCC1)c1cccc(C)n1`, > 26 µM (inactive). As for `Cc1cc(=O)[nH]c(NN=Cc2cc(Br)ccc2O)n1`, the concentration at half-maximal activity (AC50) was 3.36 µM.

With `CCCc1sc(N/N=C/c2ccccn2)nc1-c1ccc(Br)cc1`, the half-maximal activity concentration (AC50) was 21.4 µM. For `c1ccc(CCNc2nc(-c3ccccn3)nc3ccccc23)cc1`, the AC50 was 1.13 µM. The result for `C/C(=N\NC(=O)c1cccc(Br)c1)c1ccccn1` reads 3.59 µM. In the case of `CC1(C)N=C(N)N=C(N)N1c1ccc(CCCCc2ccccc2)cc1` it was 0.406 µM. Consider `O=C(N/N=C/c1cccs1)c1n[nH]c2c1CCCC2`, for which the AC50 was 27 µM.

Turning to `CCCCC(=O)NC(c1ccc(N(CC)CC)cc1)c1ccc2cccnc2c1O` (stereo not given), the AC50 is 1.54 µM.

On to `Nc1nc2ccccc2n1C(=O)c1ccccc1`, for which the AC50 was > 26 µM (inactive). In the case of `Nc1ccc(C(=O)N/N=C\c2cc(N=Nc3cccc4ccccc34)ccc2O)cc1` it was 26.5 µM; in that of `Cc1csc(N=Nc2ccc(N(C)C)cc2)[n+]1[O-]`, 5.71 µM; in that of `Oc1cccc2ccc(Nc3ccccn3)nc12`, 8.91 µM. The result for `CCN1CCN(Cc2ccc(NC(=O)c3ccc(C)c(NC(=O)c4nccnc4N)c3)cc2C(F)(F)F)CC1` reads 23.6 µM; that for `CCNC(=S)NNC(=O)c1cc(-c2ccc(OCC)cc2)nc2ccccc12`, 23 µM; that for `Brc1ccc(-c2nc(-c3ccccn3)no2)o1`, > 26 µM (inactive). With `COc1ccccc1[C@]1(C)ON(c2ccccc2C(F)(F)F)C1=O`, the AC50 is 26.4 µM. For `CCCCC(=O)NC(c1ccc(OC)c(OC)c1)c1ccc2cccnc2c1O` (stereo not given), the AC50 is 4.63 µM.

For the compound `CC(=NNC(=S)Nc1ccccc1Cl)c1ccccn1`, the AC50 is 0.922 µM. As to `COc1ccccc1NC(=O)c1c(Nc2ccccc2C)sc(C(=O)Nc2cccc(Cl)c2)c1N`, the concentration at half-maximal activity (AC50) is 4.52 µM. The result for `C[n+]1c2n(c3ccccc31)N=C(c1cc(C(C)(C)C)c(O)c(C(C)(C)C)c1)CS2` reads 9.45 µM; that for `CCN1CCN(Cc2ccc(NC(=O)c3ccc(C)c(NC(=O)c4cc(-c5ccc(Br)cc5)n[nH]4)c3)cc2C(F)(F)F)CC1`, 15.6 µM; that for `Cc1ccc2[nH]c(C(=O)N/N=C/c3ccccc3O)c(C)c2c1`, 3.52 µM. `CC(=NNc1nc2ccccc2o1)c1cc2ccccc2cn1`: the AC50 was 0.252 µM. For `O=C1c2ccccc2C(Nc2ccc(Cl)cc2)N1CCN1CCOCC1` (stereo not given), the AC50 is > 26 µM (inactive).

As to `CCCC(=O)NC(c1ccc(C)cc1)c1ccc2cccnc2c1O` (stereo not given), the AC50 is 4.45 µM. The result for `CCCc1nc2ccc(Br)cc2c(=O)n1-c1ccc([N+](=O)[O-])c(C(F)(F)F)c1` reads 4.2 µM. The result for `CCOc1ccc(Br)cc1/C(C)=N\NC1=NCCN1` reads 3.69 µM. Turning to `c1ccc(C2=NNC(=NC3CC3)SC2)cc1`, the AC50 was 12.1 µM. For `CCN1CCN(Cc2ccc(NC(=O)c3ccc(C)c(NC(=O)c4c[nH]c5cc(C(F)(F)F)ccc5c4=O)c3)cc2C(F)(F)F)CC1`, the AC50 is 4.09 µM. In the case of `CCC(=O)NC(c1cc(Cl)c2cccnc2c1O)C(C)C` (stereo not given) it was 9.32 µM; in that of `CN(C)c1ccc(-c2nc3ccccc3n2C)cc1`, 14.1 µM; in that of `CCCCCN=Cc1c(C)[nH]n(-c2nc3ccccc3s2)c1=O`, 1.33 µM.

`CCOc1ccc(/C=C/[N+](=O)[O-])c2ccccc12`: the AC50 is 11.8 µM. In the case of `COc1ccc(C(=O)C(CN2CCOCC2)c2ccccc2)cc1F` (stereo not given), the AC50 was 8.32 µM. The result for `Cc1cccc(-n2ncc(Cl)c(Cl)c2=O)c1` reads 5.2 µM; that for `O=C(NC1CCCCCCC1)c1cc(COc2ccc3ncccc3c2)on1`, 1.3 µM; that for `Clc1ccc(SCc2cc(N3CCOCC3)nc(-c3ccccn3)n2)cc1`, 14.9 µM.

`CC(=NNC(=S)Nc1cccc(Cl)c1)c1ccccn1`: the AC50 was 0.687 µM.

Turning to `CCN1CCN(Cc2ccc(NC(=O)c3ccc(C)c(NC(=O)c4cccc5[nH]ccc45)c3)cc2C(F)(F)F)CC1`, the AC50 is 22.3 µM. The result for `c1ccc(CCCN2CCN(CCOC(c3ccccc3)c3ccccc3)CC2)cc1` reads 16.5 µM; that for `Cc1ccc2nc(-c3ccccn3)[nH]c2c1`, 21.6 µM; that for `CCc1nc(SCC(=O)c2ccc3c(c2)OCCO3)c2ccccc2n1`, > 26 µM (inactive). In the case of `COc1ccc(N/N=C/c2c(C(=O)O)ccc3ccccc23)cc1` it was 4.11 µM; in that of `O=C1c2cccc3c([N+](=O)[O-])ccc(c23)C(=O)N1c1ccccn1`, 4.11 µM; in that of `C/C(=N/NC(=O)c1ccc(C(C)(C)C)cc1)c1ccccn1`, 3.38 µM. Turning to `O=C(N/N=C/c1c(O)ccc2ccccc12)c1cccnc1`, the AC50 was 8.72 µM. Turning to `COc1cnc(-c2ccccn2)nc1Sc1ccccc1Cl`, the AC50 was 18.8 µM.

On to `CCCCC(=O)NC(c1ccc(Cl)cc1)c1ccc2cccnc2c1O` (stereo not given), for which the AC50 is 4.35 µM. In the case of `COc1ccc(C(=O)NC2CCCc3c2cnn3-c2cccc(C)c2C)c(OC)n1` (stereo not given) it was 24.1 µM; in that of `Fc1ccc2[nH]c3c(N4CCSCC4)ncnc3c2c1`, 9.97 µM; in that of `Cc1nc(N)nc(N)c1/C=C/C(C)(C)c1ccc(Cl)cc1`, less than 0.011 µM. As to `CCCC(=O)NC(c1ccccc1Cl)c1ccc2cccnc2c1O` (stereo not given), the AC50 was 4.36 µM. The result for `Cc1[nH]n(-c2ccccc2)c(=O)c1/C=N/Nc1nncc(-c2ccccc2)n1` reads 2.64 µM.

On to `CCOc1ccc(C(=O)Nc2cc(C)ccn2)cc1`, for which the half-maximal activity concentration (AC50) was 13.8 µM.

In the case of `CCN(CC)c1ccc(/C=N/NC(=O)c2cnccn2)c(O)c1`, the AC50 was 3.21 µM. In the case of `Cc1ccc(C(=O)Nc2ccc3c(c2)OCCO3)c(Cl)c1` it was > 26 µM (inactive); in that of `COc1ccc(O)c(/C=N/Nc2nc(Nc3ccccc3)nc(-n3nc(C)cc3C)n2)c1`, 7.55 µM. The result for `c1ccc(CN2CCN(c3ncnc4c3[nH]c3ccccc34)CC2)cc1` reads 11.8 µM; that for `Cc1ccc(CSc2nc3ccncc3[nH]2)cc1`, 20.9 µM. With `S=C(NN=Cc1ccccn1)Nc1ccccn1`, the AC50 was 23 µM.

`c1ccc(-c2cccc(-c3ccccn3)n2)nc1`: the AC50 is 1.77 µM. Regarding `OC1(c2cccc(C(F)(F)F)c2)CCN(c2ncnc3c2[nH]c2ccc(F)cc23)CC1`, the AC50 is 17.8 µM. The result for `Oc1ccccc1/C=N/Nc1nccnc1Cl` reads > 26 µM (inactive); that for `CSc1ccc2c(c1)C(N1CCN(C)CC1)Cc1ccccc1S2` (stereo not given), 15.4 µM; that for `C#Cc1cc(N2CCN(C(=O)c3ccoc3)CC2)n2nc(-c3cccc(Cl)c3)cc2n1`, 5.11 µM. The result for `O=[N+]([O-])c1c(Nc2cccc(O)c2)cc(Cl)c2nonc12` reads 4.39 µM; that for `COc1ccc(/C=N/Nc2cc(C)nc3ccc(OC)cc23)c(OC)c1`, 5.04 µM; that for `O=C(N/N=C/c1sc2ccccc2c1O)c1cccc2ccccc12`, 4.96 µM. For the compound `NC(=S)N/N=C/c1ncc(C(F)(F)F)cc1Cl`, the AC50 was 17.9 µM. With `COc1ccc(NC2=NCC(Cc3ccc(Br)cc3)S2)cc1` (stereo not given), the AC50 is 26.2 µM. Consider `Cc1cc(C)nc(SCc2ccc(C(=O)N/N=C/c3cccc(O)c3O)cc2)n1`, for which the AC50 is 20.3 µM. The result for `Cc1oc2c(c1C(=O)c1ccc(Cl)cc1)C(=O)C(=O)c1ccccc1-2` reads 4.37 µM; that for `COc1cccc(/C=N/NC(=O)c2[nH]nc3c2CCc2ccccc2-3)c1O`, 3.21 µM; that for `CC(=O)NC(c1ccc(Cl)cc1)c1ccc2cccnc2c1O` (stereo not given), 1.16 µM.

On to `CCN(CC)CCC(=O)N1C/C(=C/c2ccccc2)C(=O)/C(=C\c2ccccc2)C1`, for which the AC50 was 3.88 µM.

In the case of `CCOC(=O)c1cn2nc(N3CCCCC3)ccc2n1`, the AC50 was > 26 µM (inactive). Turning to `Cc1ccc(C(=O)/C=C/C(=O)c2ccc(C)cc2)cc1`, the AC50 is 7.08 µM. The result for `COc1ccc(O)c(/C=N/NC(=O)c2ccc(OCc3cccc(Br)c3)cc2)c1` reads 4.45 µM; that for `COc1ccc(/C=C/c2nc3ccccc3n2C)cc1`, 2.27 µM; that for `CCN1C(=O)[C@@H]2[C@@H](c3ccc(-c4ccc(Cl)c(Cl)c4)cc3)N3CCC[C@@]3(C(=O)OC)[C@@H]2C1=O`, > 26 µM (inactive). In the case of `CCC(=O)NC(c1cc(Cl)c2cccnc2c1O)C1CC1` (stereo not given) it was 9.86 µM. Turning to `COc1ccc(C(=O)Nn2c(SCC(=O)NC3CCCCC3)nc3ccccc3c2=O)cc1`, the AC50 was > 26 µM (inactive). The result for `C#CCN(C[C@@H]1[C@@H](OC(=O)NCc2ccccc2F)[C@@H](OC(=O)NCc2ccccc2F)Cn2c(=O)ccc(=O)n21)S(=O)(=O)c1ccc(C)cc1` reads 7.27 µM.
